Results: US9924721B2 (priority 2013, dated 2018)
Where two headings read alike, the source gives them in different places. Marks after values point to notes of the source that are not given here.

What was measured:
physchem = settings: pH 2.7
Phytophthora infestans [1] = assay: microbe, parasite or virus in culture; assay type: cell-based; settings: for Eff. % (inhibition of fungal growth): 8 days incubation
Pythium ultimum = Pythium ultimum in vitro cell test; assay type: cell-based; settings: 4 days incubation
Experimental: Pythium ultimum In Vitro Cell Test
• Solvent: DMSO • Culture medium: 14.6 g anhydrous D-glucose (VWR), 7.1 g Mycological Peptone (Oxoid), 1.4 g granulated Yeast Extract (Merck), QSP liter • Inoculum: mycelial suspension
Fungicides were solubilized in DMSO and the solution used to prepare the required range of concentrations. The final concentration of DMSO used in the assay was ≤1%.
Inoculum was prepared from a pre-culture of P. ultimum grown in liquid medium by homogenization using a blender. The concentration of ground mycelium in the inoculum was estimated and adjusted to the desired optical density (OD).
Fungicides were evaluated for their ability to inhibit mycelium growth in liquid culture assay. The compounds were added in the desired concentrations to culture medium containing the mycelial suspension. After 4 days of incubation, the fungicidal efficacy of compounds was determined by spectrometric measurement of mycelium growth. Inhibition of fungal growth was determined by comparing the absorbance values in wells containing the fungicides with the absorbance in control wells without fungicides.

Phytophthora infestans [2] = assay type: in vivo; settings: tomatoes, spray, evaluated 3 days after inoculation
[3] = pH 2.7
Plasmopara viticola = assay: Plasmopara test (grapevines)/preventive; assay type: in vivo; settings: spray, evaluated 6 days after inoculation
Experimental: Plasmopara Test (Grapevines)/Preventive
• Solvent: 24.5 parts by weight of acetone • 24.5 parts by weight of dimethylacetamide • Emulsifier: 1 part by weight of alkylaryl polyglycol ether
To produce a suitable preparation of active compound, 1 part by weight of active compound is mixed with the stated amounts of solvent and emulsifier, and the concentrate is diluted with water to the desired concentration.
To test for preventive activity, young plants are sprayed with the preparation of active compound at the stated rate of application. After the spray coating has dried on, the plants are inoculated with an aqueous spore suspension of Plasmopara viticola and then remain for 1 day in an incubation cabinet at approximately 20° C. and a relative atmospheric humidity of 100%. The plant is subsequently placed for 4 days in a greenhouse at approximately 21° C. and a relative atmospheric humidity of approximately 90%. The plants are then misted and placed for 1 day in an incubation cabinet.
The test is evaluated 6 days after the inoculation. 0% means an efficacy which corresponds to that of the untreated control, while an efficacy of 100% means that no disease is observed.

[4] = 0.25 μg/mL of active ingredient
[5] = Phytophthora infestans, 192 h, read-out: Eff. % (inhibition of fungal growth)

Row | Compound | chromatographic logP (physchem) | Eff. % (inhibition of fungal growth) (Phytophthora infestans [1]; 20 μg/mL of active ingredient) [%] | Eff. % (inhibition of fungal growth) (Pythium ultimum; 20 μg/mL of active ingredient) [%] | Log P [3] | also measured
1 | CS(=O)(=O)Oc1ccccc1C1CC(C(=O)CCl)=NO1 (centres unmarked) [2-[3-(chloroacetyl)-4,5-dihydro-1,2-oxazol-5-yl]phenyl methanesulfonate] | 2.37 |  |  |  | 
2 | C#CCOc1ccccc1C1CC(c2csc(C3CCNCC3)n2)=NO1 (centres unmarked) [4-(4-{5-[2-(prop-2-yn-1-yloxy)phenyl]-4,5-dihydro-1,2-oxazol-3-yl}-1,3-thiazol-2-yl)piperidinium chloride] | 1.26 |  |  |  | 
3 | CC(C)OC(=O)C(C(=O)N1CCC(c2nc(C3=NOC(c4ccccc4OS(C)(=O)=O)C3)cs2)CC1)n1nc(C(F)F)cc1C(F)F (centres unmarked) [Example I-01] |  | 100 | 95 | 3.53^[a] | Eff. % (preventive efficacy) (Phytophthora infestans [2]; 100 ppm of active ingredient): 70%
4 | C#CCOc1cccc(F)c1C1CC(c2csc(C3CCN(C(=O)C(C(=O)OCCOC)n4nc(C(F)F)cc4C(F)F)CC3)n2)=NO1 (centres unmarked) [Example I-02] |  |  |  | 3.37^[a] | Eff. % (inhibition of fungal growth) (Phytophthora infestans [1]; [4]): 100%; Eff. % (inhibition of fungal growth) (Pythium ultimum; of active ingredient): 96%; Eff. % (preventive efficacy) (Phytophthora infestans [2]; 100 ppm of active ingredient): 96%; Eff. % (preventive efficacy) (Plasmopara viticola; 100 ppm of active ingredient): 100%
5 | CCOC(=O)C(C(=O)N1CCC(c2nc(C3=NOC(c4c(F)cccc4OS(C)(=O)=O)C3)cs2)CC1)n1nc(C(F)F)cc1C(F)F (centres unmarked) [Example I-03] |  | 99 | 96 | 3.29^[a] | Eff. % (preventive efficacy) (Phytophthora infestans [2]; 100 ppm of active ingredient): 95%; Eff. % (preventive efficacy) (Plasmopara viticola; 100 ppm of active ingredient): 98%
6 | COCCOC(=O)C(C(=O)N1CCC(c2nc(C3=NOC(c4ccccc4OS(C)(=O)=O)C3)cs2)CC1)n1nc(C(F)F)cc1C(F)F (centres unmarked) [Example I-05] |  |  | 87 | 3.14^[a] | Eff. % (inhibition of fungal growth) (Phytophthora infestans [1]; [4]): 100%; Eff. % (preventive efficacy) (Phytophthora infestans [2]; 100 ppm of active ingredient): 96%; Eff. % (preventive efficacy) (Plasmopara viticola; 100 ppm of active ingredient): 95%
7 | CCOC(=O)C(C(=O)N1CCC(c2nc(C3=NOC(c4c(Cl)cccc4OS(C)(=O)=O)C3)cs2)CC1)n1nc(C(F)F)cc1C(F)F (centres unmarked) [Example I-08] |  | 99 | 87 | 3.50^[a] | Eff. % (preventive efficacy) (Phytophthora infestans [2]; 100 ppm of active ingredient): 95%; Eff. % (preventive efficacy) (Plasmopara viticola; 100 ppm of active ingredient): 98%
8 | C#CCOc1ccccc1C1CC(c2csc(C3CCN(C(=O)C(C(=O)OCC)n4nc(C(F)F)cc4C(F)F)CC3)n2)=NO1 (centres unmarked) [Example I-15, ethyl 2-[3,5-bis(difluoromethyl)-1H-pyrazol-1-yl]-3-oxo-3-[4-(4-{5-[2-(prop-2-yn-1-yloxy)phenyl]-4,5-dihydro-1,2-oxazol-3-yl}-1,3-thiazol-2-yl)piperidin-1-yl]propanoate] | 3.69 |  |  |  | 
9 | C#CCOc1cccc(Cl)c1C1CC(c2csc(C3CCN(C(=O)C(C(=O)OCC)n4nc(C(F)F)cc4C(F)F)CC3)n2)=NO1 (centres unmarked) [Example I-16] |  | 100 | 94 | 3.82^[a] | Eff. % (preventive efficacy) (Phytophthora infestans [2]; 100 ppm of active ingredient): 98%; Eff. % (preventive efficacy) (Plasmopara viticola; 100 ppm of active ingredient): 95%
10 | C#CCOc1ccccc1C1CC(c2csc(C3CCN(C(=O)C(Br)C(=O)OCC)CC3)n2)=NO1 (centres unmarked) [Example I-30, ethyl 2-bromo-3-oxo-3-[4-(4-{5-[2-(prop-2-yn-1-yloxy)phenyl]-4,5-dihydro-1,2-oxazol-3-yl}-1,3-thiazol-2-yl)piperidin-1-yl]propanoate] | 3.18 |  |  |  | 
11 | C#CCOc1cccc(F)c1C1CC(c2csc(C3CCN(C(=O)C(Br)C(=O)OC(C)C)CC3)n2)=NO1 (centres unmarked) [Example I-38] |  |  |  | 3.30^[a] | Eff. % (inhibition of fungal growth) (Phytophthora infestans [1]; [4]): 100%; Eff. % (inhibition of fungal growth) (Pythium ultimum; of active ingredient): 99%; Eff. % (preventive efficacy) (Plasmopara viticola; 1 ppm of active ingredient): 93%
12 | C#CCOc1ccccc1C1CC(c2csc(C3CCN(C(=O)CC(=O)OCC)CC3)n2)=NO1 (centres unmarked) [Example I-41, ethyl 3-oxo-3-[4-(4-{5-[2-(prop-2-yn-1-yloxy)phenyl]-4,5-dihydro-1,2-oxazol-3-yl}-1,3-thiazol-2-yl)piperidin-1-yl]propanoate] | 2.7 |  |  |  | inhibition at 20 µg/mL (Phytophthora infestans [1]; [5]): 100%; inhibition at 20 µg/mL (Pythium ultimum; Globisporangium ultimum, 96 h, 20 μg/mL of active ingredient, read-out: Eff. % (inhibition of fungal growth)): 99%; Eff. % (preventive efficacy) (Phytophthora infestans [2]; 1 ppm of active ingredient): 94%; Eff. % (preventive efficacy) (Plasmopara viticola; 1 ppm of active ingredient): 91%
13 | C#CCOc1cccc(F)c1C1CC(c2csc(C3CCN(C(=O)CC(=O)OCC)CC3)n2)=NO1 (centres unmarked) [Example I-42] |  | 100 | 100 | 2.58^[a] | Eff. % (preventive efficacy) (Phytophthora infestans [2]; 1 ppm of active ingredient): 94%; Eff. % (preventive efficacy) (Plasmopara viticola; 1 ppm of active ingredient): 99%
14 | C#CCOc1cccc(F)c1C1CC(c2csc(C3CCN(C(=O)CC(=O)OC(C)C)CC3)n2)=NO1 (centres unmarked) [Example I-44] |  | 100 | 99 | 2.85^[a] | Eff. % (preventive efficacy) (Plasmopara viticola; 1 ppm of active ingredient): 82%
15 | C#CCOc1cccc(Cl)c1C1CC(c2csc(C3CCN(C(=O)CC(=O)OCC)CC3)n2)=NO1 (centres unmarked) [Example I-51] |  | 100 | 95 | 2.81^[a] | Eff. % (preventive efficacy) (Plasmopara viticola; 1 ppm of active ingredient): 94%
16 | CS(=O)(=O)Oc1ccccc1C1CC(c2csc(C3CCN(C(=O)C(C(=O)OCc4ccccc4)n4nc(C(F)F)cc4C(F)F)CC3)n2)=NO1 (centres unmarked) [Example I-60, benzyl 2-[3,5-bis(difluoromethyl)-1H-pyrazol-1-yl]-3-{4-[4-(5-{2-[(methylsulfonyl)oxy]phenyl}-4,5-dihydro-1,2-oxazol-3-yl)-1,3-thiazol-2-yl]piperidin-1-yl}-3-oxopropanoate] | 3.77 |  |  |  | inhibition at 0.25 µg/mL (Phytophthora infestans [1]; [5]): 100%
17 | NC(=S)C1CCN(C(=O)C(C(=O)OCc2ccccc2)n2nc(C(F)F)cc2C(F)F)CC1 (centres unmarked) [II-01, benzyl 2-[3,5-bis(difluoromethyl)-1H-pyrazol-1-yl]-3-(4-carbamothioyl-piperidin-1-yl)-3-oxopropanoate] | 2.65 |  |  |  | 
18 | N#CC1CCN(C(=O)CC(=O)OCc2ccccc2)CC1 [IV-02, benzyl 3-(4-cyanopiperidin-1-yl)-3-oxopropanoate] | 1.85 |  |  |  | 
19 | N#CC1CCN(C(=O)C(Br)C(=O)OCc2ccccc2)CC1 (centres unmarked) [IV-03, benzyl 2-bromo-3-(4-cyanopiperidin-1-yl)-3-oxopropanoate] | 2.24 |  |  |  | 
20 | N#CC1CCN(C(=O)C(C(=O)OCc2ccccc2)n2nc(C(F)F)cc2C(F)F)CC1 (centres unmarked) [IV-04, benzyl 2-[3,5-bis(difluoromethyl)-1H-pyrazol-1-yl]-3-(4-cyanopiperidin-1-yl)-3-oxopropanoate] | 2.94 |  |  |  | 
21 | C#CCOc1ccccc1C1CC(c2csc(C3CCN(C(=O)OC(C)(C)C)CC3)n2)=NO1 (centres unmarked) [tert-butyl 4-(4-{5-[2-(prop-2-yn-1-yloxy)phenyl]-4,5-dihydro-1,2-oxazol-3-yl}-1,3-thiazol-2-yl)piperidine-1-carboxylate] | 4.07 |  |  |  | 
